These results are taken from patent US20260193264A1, “BENZOYPARAZINE PYRAZINES AND THEIR USES” (FOGHORN THERAPEUTICS INC., priority 2022, published 2026).

Assay [1] concerns the target T1, HiBiT-BRM fusion protein in stable HeLa cell line (Homo sapiens, UniProt P51531).
T1 construct: expressed in transfected cells
Description: HiBiT-BRM cell-based degradation assay (Nano-Glo HiBiT Lytic Detection, 24 h). More on the design: DC50: scale not given here. The note with it: HeLa HiBiT-BRM cells; for DC50: read-out: BRM HiBit Degradation IC50; for BRM HiBit Degradation Maximum (%): top dose 30 μM. The essentials:
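Stable HiBiT-BRM HeLa cells were treated with 10-point 3-fold serial dilutions (30 μM final top dose, duplicate) for 24 h, then lysed with LgBiT-containing detection reagent and luminescence read. Degradation % was normalised to DMSO (high control) and 2 μM reference BRM/BRG1 degrader (low control).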
In general terms: With HiBiT, luminescence reflects the tagged protein that the partner subunit can reach.

The target of assay [2] is T2, HiBit-BRG1 fusion protein in stable HeLa cell line expressing HiBit-BRG1 and LgBit (Homo sapiens, UniProt P51532).
T2 construct: expressed in transfected cells
Description: HiBiT-BRG1 cell-based degradation assay (Nano-Glo HiBiT, 24 h). The note with it: HeLa HiBit-BRG1/LgBit cells; for DC50: read-out: BRMG1 HiBit Degradation IC50; for Dmax: top dose 30 μM, read-out: BRG1 HiBit Degradation Maximum (%). The essentials: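 Stable HeLa line co-expressing HiBiT-BRG1 and LgBiT, compound-treated 24 h; luminescence read after Nano-Glo HiBiT lytic reagent. % degradation normalised between DMSO (high control) and 2 μM reference BRM/BRG1 degrader (low control).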

T1 sequence (P51531 whole entry, the tested form may be a part): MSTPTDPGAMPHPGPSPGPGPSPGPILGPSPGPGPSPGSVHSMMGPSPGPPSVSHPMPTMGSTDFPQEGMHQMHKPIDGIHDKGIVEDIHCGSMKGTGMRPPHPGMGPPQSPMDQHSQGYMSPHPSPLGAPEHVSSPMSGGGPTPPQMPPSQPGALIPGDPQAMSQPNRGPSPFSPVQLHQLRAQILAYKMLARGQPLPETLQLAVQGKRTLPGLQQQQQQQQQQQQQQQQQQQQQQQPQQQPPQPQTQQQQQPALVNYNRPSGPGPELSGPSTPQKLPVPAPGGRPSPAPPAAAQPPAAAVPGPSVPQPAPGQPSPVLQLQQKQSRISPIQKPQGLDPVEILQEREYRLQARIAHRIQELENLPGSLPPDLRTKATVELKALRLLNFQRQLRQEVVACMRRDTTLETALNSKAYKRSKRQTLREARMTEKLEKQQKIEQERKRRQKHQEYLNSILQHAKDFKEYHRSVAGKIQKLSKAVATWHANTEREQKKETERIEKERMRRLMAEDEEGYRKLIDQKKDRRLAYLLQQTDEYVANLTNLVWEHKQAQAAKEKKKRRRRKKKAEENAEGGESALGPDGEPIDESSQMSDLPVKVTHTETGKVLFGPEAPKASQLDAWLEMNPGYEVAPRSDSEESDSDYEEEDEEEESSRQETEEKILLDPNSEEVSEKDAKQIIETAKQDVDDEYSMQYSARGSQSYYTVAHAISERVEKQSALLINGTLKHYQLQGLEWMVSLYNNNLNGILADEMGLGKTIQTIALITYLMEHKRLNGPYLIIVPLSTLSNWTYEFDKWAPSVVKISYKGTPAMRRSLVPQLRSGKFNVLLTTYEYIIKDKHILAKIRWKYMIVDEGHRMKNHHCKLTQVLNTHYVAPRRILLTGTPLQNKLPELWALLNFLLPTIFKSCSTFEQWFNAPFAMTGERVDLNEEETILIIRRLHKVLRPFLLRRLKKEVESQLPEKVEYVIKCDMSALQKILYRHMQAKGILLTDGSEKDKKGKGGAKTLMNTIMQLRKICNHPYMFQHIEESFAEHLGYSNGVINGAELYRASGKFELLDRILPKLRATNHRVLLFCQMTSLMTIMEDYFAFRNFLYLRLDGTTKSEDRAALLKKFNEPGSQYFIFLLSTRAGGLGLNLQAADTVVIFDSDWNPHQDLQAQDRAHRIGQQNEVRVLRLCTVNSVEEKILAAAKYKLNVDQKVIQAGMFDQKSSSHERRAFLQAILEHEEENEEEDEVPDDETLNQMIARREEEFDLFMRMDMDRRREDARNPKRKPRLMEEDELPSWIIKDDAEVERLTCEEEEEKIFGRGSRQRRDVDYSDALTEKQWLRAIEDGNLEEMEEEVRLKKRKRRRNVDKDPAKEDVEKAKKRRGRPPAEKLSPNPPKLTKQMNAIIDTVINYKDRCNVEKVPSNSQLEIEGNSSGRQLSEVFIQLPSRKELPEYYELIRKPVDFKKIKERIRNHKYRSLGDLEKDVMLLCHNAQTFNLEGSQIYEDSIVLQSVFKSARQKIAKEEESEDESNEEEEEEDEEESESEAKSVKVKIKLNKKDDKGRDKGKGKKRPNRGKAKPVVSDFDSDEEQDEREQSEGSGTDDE
T2 sequence (P51532 whole entry, the tested form may be a part): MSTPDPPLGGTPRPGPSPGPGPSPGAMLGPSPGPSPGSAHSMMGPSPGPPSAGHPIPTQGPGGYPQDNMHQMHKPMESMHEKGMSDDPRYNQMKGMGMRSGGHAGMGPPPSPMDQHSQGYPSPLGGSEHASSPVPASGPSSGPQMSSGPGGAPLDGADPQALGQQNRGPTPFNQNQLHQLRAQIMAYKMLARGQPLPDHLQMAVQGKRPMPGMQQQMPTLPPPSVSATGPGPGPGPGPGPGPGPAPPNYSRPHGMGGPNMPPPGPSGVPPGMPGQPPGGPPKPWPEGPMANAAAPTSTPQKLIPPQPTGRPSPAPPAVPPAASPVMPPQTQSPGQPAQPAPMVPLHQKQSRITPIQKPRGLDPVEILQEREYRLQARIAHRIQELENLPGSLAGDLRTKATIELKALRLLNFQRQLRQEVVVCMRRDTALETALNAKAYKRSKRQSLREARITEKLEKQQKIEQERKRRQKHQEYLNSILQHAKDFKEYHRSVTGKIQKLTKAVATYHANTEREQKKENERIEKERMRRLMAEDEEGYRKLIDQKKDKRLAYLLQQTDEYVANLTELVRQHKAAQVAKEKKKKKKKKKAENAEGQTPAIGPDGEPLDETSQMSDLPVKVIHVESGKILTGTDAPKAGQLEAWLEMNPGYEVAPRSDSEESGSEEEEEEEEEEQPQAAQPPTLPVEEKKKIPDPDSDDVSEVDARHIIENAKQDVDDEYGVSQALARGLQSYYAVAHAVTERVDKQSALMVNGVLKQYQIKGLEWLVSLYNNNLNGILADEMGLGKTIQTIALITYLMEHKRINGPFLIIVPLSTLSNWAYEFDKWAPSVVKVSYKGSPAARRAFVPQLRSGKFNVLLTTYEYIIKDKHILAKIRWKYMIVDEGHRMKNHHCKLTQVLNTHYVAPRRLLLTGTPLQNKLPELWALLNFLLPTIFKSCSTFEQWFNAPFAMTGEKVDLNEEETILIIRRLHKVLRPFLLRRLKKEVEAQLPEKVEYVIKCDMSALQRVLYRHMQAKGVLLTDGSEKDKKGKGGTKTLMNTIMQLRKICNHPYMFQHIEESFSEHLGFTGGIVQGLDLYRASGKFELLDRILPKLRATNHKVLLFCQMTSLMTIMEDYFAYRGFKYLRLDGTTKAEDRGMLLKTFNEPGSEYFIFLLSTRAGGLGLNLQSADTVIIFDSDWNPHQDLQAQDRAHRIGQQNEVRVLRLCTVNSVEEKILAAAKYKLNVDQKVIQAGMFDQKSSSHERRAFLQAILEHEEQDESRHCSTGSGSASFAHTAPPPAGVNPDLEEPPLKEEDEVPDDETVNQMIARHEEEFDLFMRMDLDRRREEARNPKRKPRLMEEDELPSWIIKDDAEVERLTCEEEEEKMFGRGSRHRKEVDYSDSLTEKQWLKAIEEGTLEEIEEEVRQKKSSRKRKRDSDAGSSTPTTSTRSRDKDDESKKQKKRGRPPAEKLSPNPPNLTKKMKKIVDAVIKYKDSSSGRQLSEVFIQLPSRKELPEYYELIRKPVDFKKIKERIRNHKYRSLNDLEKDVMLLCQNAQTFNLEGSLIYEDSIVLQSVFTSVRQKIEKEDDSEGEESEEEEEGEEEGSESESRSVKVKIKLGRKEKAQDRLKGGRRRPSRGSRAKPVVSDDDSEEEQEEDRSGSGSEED

Consider `Cc1ncsc1-c1ccc([C@H](C)NC(=O)[C@@H]2C[C@@H](O)CN2C(=O)[C@@H](c2cc(N3CC4(CC(c5cc6nnc(-c7ccccc7O)cc6cc5C5CC5)C4)C3)no2)C(C)C)cc1` [Compound 252, (2S,4R)-1-((R)-2-(3-(6-(6-cyclopropyl-3-(2-hydroxyphenyl)cinnolin-7-yl)-2-azaspiro[3.3]heptan-2-yl)isoxazol-5-yl)-3-methylbutanoyl)-4-hydroxy-N-((S)-1-(4-(4-methylthiazol-5-yl)phenyl)ethyl)pyrrolidine-2-carboxamide], for which, in assay [1], the DC50 is under 10 nM and the “BRM HiBit Degradation Maximum (%)” value is given as “A (“A” indicates maximum degradation ≥75%)”. In assay [2], the DC50 is under 10 nM and the Dmax is over 75%.
In the case of `Cc1ncsc1-c1ccc([C@H](C)NC(=O)[C@@H]2C[C@@H](O)CN2C(=O)C(C(C)C)n2cc(N3CCC(C4CCN(c5ccc6cc(-c7ccccc7O)nnc6c5)CC4)C3)nn2)cc1` (stereo partly drawn) [Compound 266, (2S,4R)-4-hydroxy-1-(2-(4-(3-(1-(3-(2-hydroxyphenyl)cinnolin-7-yl)piperidin-4-yl)pyrrolidin-1-yl)-1H-1,2,3-triazol-1-yl)-3-methylbutanoyl)-N-((S)-1-(4-(4-methylthiazol-5-yl)phenyl)ethyl)pyrrolidine-2-carboxamide], in assay [1], the DC50 is under 10 nM and the “BRM HiBit Degradation Maximum (%)” value is “A (“A” indicates maximum degradation ≥75%)”. Further, in assay [2], the DC50 is under 10 nM and the Dmax is over 75%.
With `COc1cc2nnc(-c3ccccc3O)cc2cc1C1CN(c2ncc(-c3cc([C@@H](C(=O)N4C[C@H](O)C[C@H]4C(=O)N[C@@H](C)c4ccc(-c5scnc5C)cc4)C(C)C)on3)cn2)C1` [Compound 23], in assay [1], the DC50 was over 10 nM and the “BRM HiBit Degradation Maximum (%)” value is reported as “A (“A” indicates maximum degradation ≥75%)”. For the same compound, in assay [2], the Dmax was under 50%.
For `Cc1ncsc1-c1ccc([C@H](C)NC(=O)[C@@H]2C[C@@H](O)CN2C(=O)[C@@H](c2cc(-c3cnc(N4CCC(c5ccc6nnc(-c7ccccc7O)cc6c5)CC4)nc3)no2)C(C)C)cc1` [Compound 42], in that order: over 10 nM, “A (“A” indicates maximum degradation ≥75%)” and under 50%.
In the case of `COC[C@@H]1CN(c2cc(C(C(=O)N3C[C@H](O)C[C@H]3C(=O)N[C@@H](C)c3ccc(-c4scnc4C)cc3)C(C)C)on2)CCN1c1ccc2nnc(-c3ccccc3O)cc2c1` (stereo partly drawn) [Compound 144, (2S,4R)-4-hydroxy-1-(2-(3-((S)-4-(3-(2-hydroxyphenyl)cinnolin-6-yl)-3-(methoxymethyl)piperazin-1-yl)isoxazol-5-yl)-3-methylbutanoyl)-N-((S)-1-(4-(4-methylthiazol-5-yl)phenyl)ethyl)pyrrolidine-2-carboxamide], in assay [1], the DC50 is under 10 nM and the “BRM HiBit Degradation Maximum (%)” value is “A (“A” indicates maximum degradation ≥75%)”. In assay [2], the DC50 was over 10 nM and the Dmax is over 75%.
Take `Cc1ncsc1-c1ccc([C@H](C)NC(=O)[C@@H]2C[C@@H](O)CN2C(=O)[C@H](C(C)C)n2cnc(N3CC4(CN(c5ccc6cc(-c7ccccc7O)nnc6c5)C4)C3)n2)cc1` [Compound 267, (2S,4R)-4-hydroxy-1-[(2S)-2-(3-{6-[3-(2-hydroxyphenyl)cinnolin-7-yl]-2,6-diazaspiro[3.3]heptan-2-yl}-1,2,4-triazol-1-yl)-3-methylbutanoyl]-N-[(1S)-1-[4-(4-methyl-1,3-thiazol-5-yl)phenyl]ethyl]pyrrolidine-2-carboxamide]: in assay [1], the DC50 is over 100 nM and the “BRM HiBit Degradation Maximum (%)” value is recorded as “B (“B” indicates maximum degradation ≥50%)”. Besides, the Dmax in assay [2] is under 50%.
